These results are taken from patent US20210278391A1, “COMPOSITIONS AND METHODS FOR TREATING CARDIOVASCULAR AND METABOLIC CONDITIONS” (The Regents of the University of California, priority 2017, published 2021).

For this series the following is noted: male, C57BL/6, mouse, in vivo, ip. As for the experimental part:
Ob/ob mice or wildtype C57BL/6 male mice were purchased from Jackson Labs or SLAC Laboratory Animals Company Limited, Shanghai, China. PP2Cm germ-line knockout mice were generated as previously described (Lu et al. (2009) J Clin Invest 119:1678-1687). All animals were housed at 22° C. with a 12-hour light, 12-hour dark cycle with free access to water and standard chow. BCAA in water was prepared by BCAA powders. Isocaloric high protein diet (TD90018) and low protein diet (TD90016) were purchased from Envigo Teklad Diet. For glucose or insulin tolerance test, mice were fasted for 6 hours and injected (intraperitoneally) with insulin or D-glucose. […] For BCAA tolerance test, ob/ob mice at age of 10 weeks or high fat diet induced obese (DIO) mice were used. To induce DIO, high fat diet (60% kcal % fat) or control diet (10% kcal % fat) (Research Diets, New Brunswick, N.J.) was used to feed mice starting at 6 weeks of age and continued for 8 weeks. […] Plasma samples were collected at 0, 30, 60, 120 minute points to measure BCAA/BCKA levels. […]
Blood samples were collected at 0, 30, 60, 120 minute points as indicated. Plasma was then collected and BCAA/BCKA was measured.

With `CC(C)C[C@H](N)C(=O)O` [leucine], the “time point of recovery to near the basal level” value is 1 h.
